The values below come from patent publication US8470851B2, “Substituted acetylenic imidazo[1,2-A]pyridine compounds as kinase inhibitors” (ARIAD Pharmaceuticals, Inc., priority 2005, dated 2013).

Some results are limits rather than exact numbers.

The experiment has as its target T1, BaF3 cells transfected with the Bcr-Abl T315I mutant (Homo sapiens, UniProt P00519, T315I, cells depend on it).
T1 construct: fused on or other part: P11274 (Breakpoint cluster region protein)
The experiment is described as follows: Ba/F3 cell proliferation assay, Bcr-Abl T315I (CellTiter 96 AQueous One).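 Also: murine pro-B Ba/F3 line, tetrazolium turned into formazan and read by absorbance, compound dilution series, values as percent of DMSO-treated control, IC50 from fitted curves.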 To be noted: Ba/F3 cells expressing Bcr-Abl T315I, 3 days incubation; read-out: T315l cell proliferation. It counts as cell-based, murine.
Source text: More specifically, the cell proliferation assay we currently perform is using CellTiter 96 AQueous One Solution Cell Proliferation assay kit (Promaga, Cat#G3581). This assay is a colorimetric method for determining the number of alive cells in proliferation or cytotoxicity assays. The assay utilizing terazolium salts detect cell proliferation by detecting the product of the enzymatic conversion of the tetrazolium salts into blue formazan derivatives, which can be measured by the absorbance at 490 nm in a plate reader, Wallac Victor^2V (Perkin Elmer).
An example of cell-based assay is shown as below. The cell lines used in the assay are Ba/F3, a murine pro-B cell line, which have been stably transfected with full-length wild-type Bcr-Abl or Bcr-Abl with various kinase domain point mutations (including T351I, Y253F, E255K, H396P, M351T etc) constructs. Parental Ba/F3 cell line is used as control. […] Parental Ba/F3 cells were culture in the same medium supplemented with 10 ng/ml IL-3.
The compounds are first dissolved and diluted in DMSO by preparation of 4-fold dilution; next equal volumes of compounds with DMSO are transferred to medium and then transferred to cell plates. The final compound concentrations start from 10 μM to 6 nM. DMSO at same percentage is used as control. […] Basically, the tetrazolium salts are added to the incubated cultured cells to allow enzymatic conversion to the detectable product by active cells. Cells are processed, and the optical density of the cells is determined to measure the amount of formazan derivatives. Mean+/−SD are generated from duplicated wells and reported as the percentage absorbance of control. IC50s are calculated in best-fit curves using Micorsoft Excel-fit software.
Consider `Cc1ccc(C(=O)Nc2ccc(CN3CCNCC3)c(C(F)(F)F)c2)cc1C#Cc1cnc2cnccn12`, for which the GI50 was less than 1 µM.
Take `Cc1ccc(C(=O)Nc2cc(C(F)(F)F)ccn2)cc1C#Cc1cnc2c(NC(N)=O)cccn12`: the GI50 was less than 1 µM.
The figure for `CN1CCN(Cc2ccc(NC(=O)c3ccc(F)c(C#Cc4cnc5cnccn45)c3)cc2C(F)(F)F)CC1` is less than 1 µM; for `CCN1CCN(Cc2ccc(NC(=O)c3ccc(C)c(C#Cc4cnc5cnccn45)c3)cc2C(F)(F)F)CC1` it is less than 1 µM.
The figure for `Cc1ccc(C(=O)Nc2ccc(CN3CCN(C)CC3)c(C(F)(F)F)c2)cc1C#Cc1cnn2c(N)ncnc12` is less than 1 µM.
Then `Cc1ccc(C(=O)Nc2ccc(CN3CCN(C(C)C)CC3)c(C(F)(F)F)c2)cc1C#Cc1cnc2cnccn12`, with less than 1 µM.
Take `CNC(=O)Nc1cccn2c(C#Cc3cc(C(=O)Nc4cc(C(F)(F)F)ccn4)ccc3C)cnc12`: the GI50 is less than 1 µM.
Then `Cc1ccc(C(=O)Nc2cc(C(C)(C)C)on2)cc1C#Cc1cnc2c(NC(N)=O)cccn12`, with less than 1 µM; and `Cc1ccc(C(=O)Nc2cc(-n3ccnc3)cc(C(F)(F)F)c2)cc1C#Cc1cnc2c(NC(N)=O)cccn12`, with less than 1 µM.
Then `CN1CCN(Cc2ccc(NC(=O)c3ccc(Cl)c(C#Cc4cnc5ccccn45)c3)cc2C(F)(F)F)CC1`, with less than 1 µM; and `Cc1ccc(C(=O)Nc2cc(C(F)(F)F)ccn2)cc1C#Cc1cnc2c(NC(=O)N(C)C)cccn12`, with less than 1 µM; and `Cc1ccc(C(=O)Nc2cc(C(F)(F)F)ccn2)cc1C#Cc1cnc2c(NC(=O)C3CC3)cccn12`, with less than 1 µM.
Consider `CN1CCN(Cc2ccc(NC(=O)c3ccc(F)c(C#Cc4cnc5ccccn45)c3)cc2C(F)(F)F)CC1`, for which the GI50 is less than 1 µM.
The figure for `COC(=O)Nc1cccn2c(C#Cc3cc(C(=O)Nc4cc(C(F)(F)F)ccn4)ccc3C)cnc12` is less than 1 µM.
The figure for `Cc1ccc(C(=O)Nc2cc(-n3ccnc3)cc(C(F)(F)F)c2)cc1C#Cc1cnc2c(NC(=O)OC(C)(C)C)cccn12` is less than 1 µM; for `Cc1ccc(C(=O)Nc2ccc(OC3CCN(C)CC3)c(C(F)(F)F)c2)cc1C#Cc1cnc2cnccn12` it is less than 1 µM; for `CN1CCN(Cc2ccc(NC(=O)c3cccc(C#Cc4cnc5ccccn45)c3)cc2C(F)(F)F)CC1` it is less than 1 µM.
Then `Cc1ccc(C(=O)Nc2cc(Cn3ccnc3)cc(C(F)(F)F)c2)cc1C#Cc1cnc2ccccn12`, with less than 1 µM.
In the case of `Cc1ccc(C(=O)Nc2cc(-n3ccnc3)cc(C(F)(F)F)c2)cc1C#Cc1cnn2cccnc12`, the GI50 is less than 1 µM.
Then `Cc1ccc(C(=O)Nc2cc(Cn3ccnc3)cc(C(F)(F)F)c2)cc1C#Cc1cnc2cnccn12`, with less than 1 µM; and `CC(=O)Nc1cccn2c(C#Cc3cc(C(=O)Nc4cc(C(F)(F)F)ccn4)ccc3C)cnc12`, with less than 1 µM; and `Cc1ccc(C(=O)Nc2cc(C(F)(F)F)ccn2)cc1C#Cc1cnc2c(Nc3ccc(S(N)(=O)=O)cc3)cccn12`, with less than 1 µM.
As for `CN1CCN(Cc2ccc(NC(=O)c3cccc(C#Cc4cnc5cnccn45)c3)cc2C(F)(F)F)CC1`, the GI50 is less than 1 µM.
The figure for `Cc1ccc(C(=O)Nc2cc(-n3cnc(C#N)c3)cc(C(F)(F)F)c2)cc1C#Cc1cnc2cnccn12` is less than 1 µM; for `Cc1ccc(C(=O)Nc2cc(-n3ccnc3)cc(C(F)(F)F)c2)cc1C#Cc1cnc2c(Nc3cccc(C(N)=O)c3)cccn12` it is less than 1 µM; for `Cc1ccc(C(=O)Nc2cc(C(F)(F)F)ccn2)cc1C#Cc1cnc2c(Nc3ccc(S(C)(=O)=O)cc3)cccn12` it is less than 1 µM.
Then `Cc1ccc(C(=O)Nc2cc(-n3cnc(CCN4CCCC4)c3)cc(C(F)(F)F)c2)cc1C#Cc1cnc2ccccn12`, with less than 1 µM; and `CC(C)N1CCN(Cc2ccc(NC(=O)c3cncc(C#Cc4cnc5cnccn45)c3)cc2C(F)(F)F)CC1`, with less than 1 µM; and `Cc1ccc(C(=O)Nc2cc(-n3ccnc3CN(C)C)cc(C(F)(F)F)c2)cc1C#Cc1cnc2cnccn12`, with less than 1 µM.
On to `Cc1ccc(C(=O)Nc2ccc(CN3CCC(N(C)C)CC3)c(C(F)(F)F)c2)cc1C#Cc1cnc2cnccn12`, for which the GI50 is less than 1 µM.
The figure for `Cc1ccc(C(=O)Nc2cc(-n3ccnc3)cc(C(F)(F)F)c2)cc1C#Cc1cnc2cnccn12` is less than 1 µM; for `CC(C)N1CCN(Cc2ccc(NC(=O)c3cccc(C#Cc4cnc5cnccn45)c3)cc2C(F)(F)F)CC1` it is less than 1 µM.
Then `Cc1ccc(C(=O)Nc2cc(CN3CCCC3)cc(C(F)(F)F)c2)cc1C#Cc1cnc2cnccn12`, with less than 1 µM; and `Cc1cn(-c2cc(NC(=O)c3ccc(C)c(C#Cc4cnc5ccccn45)c3)cc(C(F)(F)F)c2)cn1`, with less than 1 µM; and `Cc1ccc(C(=O)Nc2ccc(CN3CCN(C)CC3)c(C(F)(F)F)c2)cc1C#Cc1cnn2cccnc12`, with less than 1 µM.
Then `CN1CCN(Cc2ccc(NC(=O)c3ccc(C#Cc4cnc5ccccn45)o3)cc2C(F)(F)F)CC1`, with less than 1 µM; and `Cc1ccc(C(=O)Nc2ccc(CN3CCNC(=O)C3)c(C(F)(F)F)c2)cc1C#Cc1cnc2ccccn12`, with less than 1 µM; and `Cc1ccc(C(=O)Nc2cc(-n3cnc(C#N)c3)cc(C(F)(F)F)c2)cc1C#Cc1cnc2ccccn12`, with less than 1 µM.
As for `Cc1ccc(C(=O)Nc2cc(-n3cnc(CN4CCCC4)c3)cc(C(F)(F)F)c2)cc1C#Cc1cnc2cnccn12`, the GI50 is less than 1 µM.
The figure for `Cc1ccc(C(=O)Nc2ccc(CN3CCC(N(C)C)CC3)c(C(F)(F)F)c2)cc1C#Cc1cnc2ccccn12` is less than 1 µM; for `CN1CCN(Cc2ccc(C(=O)Nc3cccc(C#Cc4cnc5cnccn45)c3)cc2C(F)(F)F)CC1` it is less than 1 µM.
The figure for `Cc1ccc(C(=O)Nc2cc(C(C)(C)C)on2)cc1C#Cn1cnc2c(NC3CC3)ncnc21` is less than 1 µM.
The figure for `Cc1ccc(C(=O)Nc2cc(C(F)(F)F)ccn2)cc1C#Cc1cnn2cccnc12` is less than 1 µM; for `Cc1ccc(C(=O)Nc2ccc(CN3CCOCC3)c(C(F)(F)F)c2)cc1C#Cc1cnc2cnccn12` it is less than 1 µM; for `Cc1ccc(C(=O)Nc2cc(C(F)(F)F)ccn2)cc1C#Cc1cnc2c(N)cccn12` it is less than 1 µM.
For the molecule `Cc1ccc(C(=O)Nc2cc(CN3CCCC3)cc(C(F)(F)F)c2)cc1C#Cc1cnc2ccccn12`, the GI50 was less than 1 µM.
The figure for `Cc1ccc(C(=O)Nc2cc(CN3CCOCC3)cc(C(F)(F)F)c2)cc1C#Cc1cnc2cnccn12` is less than 1 µM; for `Cc1ccc(C(=O)Nc2ccc(CN3CCCC3)c(C(F)(F)F)c2)cc1C#Cc1cnc2cnccn12` it is less than 1 µM.
Consider `Cc1ccc(C(=O)Nc2ccc(Cn3ccnc3)c(C(F)(F)F)c2)cc1C#Cc1cnc2cnccn12`, for which the GI50 was less than 1 µM.
The figure for `Cc1ccc(C(=O)Nc2cc(C(F)(F)F)ccn2)cc1C#Cc1cnn2c(N)ncnc12` is less than 1 µM; for `Cc1ccc(C(=O)Nc2ccc(Cn3ccnc3)c(C(F)(F)F)c2)cc1C#Cc1cnc2ccccn12` it is less than 1 µM; for `Cc1ccc(C(=O)Nc2cc(CN3CCOCC3)cc(C(F)(F)F)c2)cc1C#Cc1cnc2ccccn12` it is less than 1 µM.
Then `CC(=O)Nc1cccn2c(C#Cc3cc(C(=O)Nc4cccc(C(F)(F)F)c4)ccc3C)cnc12`, with less than 1 µM; and `Cc1ccc(C(=O)Nc2cc(-n3cnc(CCN4CCCC4)c3)cc(C(F)(F)F)c2)cc1C#Cc1cnc2cnccn12`, with less than 1 µM; and `CC(=O)Nc1ncnc2c(C#Cc3cc(C(=O)Nc4cc(C(F)(F)F)ccn4)ccc3C)cnn12`, with less than 1 µM.
The figure for `Cc1ccc(C(=O)Nc2cc(C(F)(F)F)ccn2)cc1C#Cc1cnc2c(NC(=O)C3CCC3)cccn12` is less than 1 µM.
`CC(C)(C)c1cc(NC(=O)c2cccc(C#Cc3cnc4ccccn34)c2)no1`: the GI50 was less than 1 µM.
The figure for `Cc1ccc(C(=O)Nc2ccc(CN3CC[C@@H](N(C)C)C3)c(C(F)(F)F)c2)cc1C#Cc1cnc2cccnn12` (racemic) is less than 1 µM.
Then `Cc1ccc(C(=O)Nc2ccc(CN3CC[C@@H](O)C3)c(C(F)(F)F)c2)cc1C#Cc1cnc2ccccn12` (racemic), with less than 1 µM.
Then `Cc1ccc(C(=O)Nc2ccc(CN3CC[C@@H](N(C)C)C3)c(C(F)(F)F)c2)cc1C#Cc1cnc2cnccn12` (stereo in doubt), with less than 1 µM; and `Cc1ccc(C(=O)Nc2ccc(CN3CC[C@H](N(C)C)C3)c(C(F)(F)F)c2)cc1C#Cc1cnc2cnccn12` (stereo in doubt), with less than 1 µM.
